Reference: patent publication US12721835B2, “Anticoccidial composition comprising violacein, and use thereof” (CJ CHEILJEDANG CORPORATION, priority 2020, dated 2026)

What was measured:
Eimeria tenella [1] = experiment: Cell invasion inhibition of protozoa in MDBK cells (ITS-1 PCR); format: cell-based; settings: read-out: Cell invasion inhibitory effect of protozoa (%)
Description: In the present example, using MDBK cell line which is a representative animal cell known to cause Eimeria infection and propagation, the inhibition ability of intracellular protozoan invasion and intracellular protozoal propagation of the violacein was investigated.
100,000 MDBK cells (purchased from ATCC) were aliquoted in a 24-well plate, and then incubated at a temperature of 37° C. for 12 hours. The protozoan of Eimeria tenella was obtained similar to the method of Example 3 above. 200,000 protozoa per one well were added to wells in which cells were aliquoted, and each material (violacein and anticoccidial agents, salinomycin, diclazuril and gallic acid) was treated to the cells by concentration, and cultured at a temperature of 41° C. for 24 hours. A negative control group is a MDBK cell infected by protozoa of Eimeria tenella, and a positive control group means a group in which salinomycin, diclazuril or gallic acid solution was incubated with the Eimeria tenella protozoan. […] After removing the cells and protozoa inside the cells through pipetting, DNA was extracted from the cells, and PCR was performed using E. tenella ITS-1 (Internal transcribed spacer-1) gene-specific primers. The sequences of the used primers were described in Table 9 below.
Ct values before/after washing for each material were compared and corrected with the ΔCt value of the negative control group to calculate the cell invasion inhibition rate (%) of the protozoa through treatment of each material, and the result was shown in FIG. 3 and Table 10 below.

Eimeria tenella [2] = experiment: In vivo anticoccidial activity upon single inoculation (broilers, formulated feed); parameters: key to ACI: ACI out of 200 = survival% + RWG% − lesion×10 − oocyst index; settings: Eimeria tenella infection; for Lesion score: appendix, scale 0-4, 8th day; for Oocyst excretion amount/g: feces day 6-8; for Lesion index: lesion score x 10; for ACI: out of 200 points; for Survival rate after challenge inoculation (%): up to 8th day; for RWG(%): vs non-infected negative control
Description: An in vivo anticoccidial efficacy evaluation test was performed in an animal experiment facility in Gyeongsangnam-do, South Korea. One-day-old female Ross broilers were individually weighed and randomly divided into groups to use in an experiment. Matters and conditions for experimental design were described in Table 2.
A breeding farm was managed according to the Korean poultry breeding management guidelines. Cages and the breeding farm were cleaned and disinfected before starting the test. The temperature of […] and the humidity of 40 to 50% of the breeding farm were maintained, and it was continuously monitored.
For the feed, Korea Feed Al-choi product was used, and each material (diclazuril (Yuhan Corporation YUHAN DICLA product), salinomycin (Cheil Bio Cheilsalino-60 product), violacein (CJ Cheiljedang)) was added to the feed, respectively, at a concentration described in Table 3 below to be self-mixed. Antibiotics and supplements were not used in general feed and mixed feed, and no anticoccidial agent other than each material was added. Broilers were fed ad libitum throughout the experiment period. After putting 15 1-day-age broilers in cages randomly placed for each of the control group or test group and breeding, general feed (Al-choi product) was fed for 7 days, and then the mixed feed prepared above was ingested by dividing by control group or test group. The non-infected negative control group used 1cage, and the infected negative control group and experimental group used 2cage to progress the experiment.
The feed formulation administered to the control group (negative control group or positive control group) and test group and whether coccidiosis was induced by Eimeria tenella were described in Table 3 below.
14-day-old broilers were orally inoculated with 10,000 oocysts (90% sporulated Eimeria tenella oocysts) per individual to induce coccidiosis.
The anticoccidial efficacy by test group designed in Example 1-2 above was shown as an anticoccidial index (ACI), and the anticoccidial index was calculated by Equation 2 below. The ACI score is out of 200 points, and the higher the ACI score, the more excellent the anticoccidial ability, and when it is 120 points or more to less than 140 points, it is determined that it is effective as an anticoccidial material, and when it is 140 points or more to less than 160 points, it is determined that it is excellent as an anticoccidial material, and when it is 160 points or more, it is determined that the anticoccidial effect is very excellent (Luis Miguel De Pablos et al., Anticoccidial activity of maslinic acid against infection with Eimeria tenella in chickens, Parasitol Res, 2010). Anticoccidial index (ACI)=(survival rate after challenge inoculation(%))+(daily weight gain compared to negative control group (RWG,%))−(lesion score×10)−(fecal oocyst excretion amount index) (Equation 2) • 1) Survival rate: the number of dead individuals was recorded daily, and post mortem autopsy was performed to determine a cause of mortality, and the number of individuals who died due to causes other than coccidiosis was excluded. The survival rate (%) up to the 8th day after challenge inoculation was used for anticoccidial index calculation. The measured survival rate was described in Table 4 below. • 2) Daily weight gain: body weight was measured for each cage before challenge inoculation with a protozoan into an individual and at the 7th day after challenge inoculation, and the difference was divided by the number of days to calculate the daily weight gain (ADG, g/d). ‘Daily weight gain compared to the negative control group (RWG, %)’ which was calculated by dividing the daily weight gain (ADG, average daily gain; g/d) of each experimental group by the weight gain (ADG, g/d) of the non-infected negative control group and multiplying by 100 was used for anticoccidial index calculation. […]

Eimeria maxima = experiment: Protozoan (sporozoite) direct killing effect; format: cell-based; settings: tested 1 to 500 ppm, vs PBS control
Description: (§1) In the present example, protozoan (sporozoite) direct killing ability evaluation was conducted against 3 representative Eimeria kinds known to be infected in most farms (E. tenella, E. acervulina, E. maxima).
(§2) A certain amount of oocysts of each coccidial protozoan was put in a tube containing glass beads and pulverized, and then to remove the crushed oocyst cell wall and other debris, internal sporocysts were purified using the percoll density gradient, and washed with PBS solution. A reagent comprising sodium taurocholic acid (Sigma aldrich, USA) and trypsin (Gibco, USA), respectively, was treated to sporocysts of Eimeria tenella, Eimeria acervulina and Eimeria maxima for excystation of the internal sporozoites, and they were incubated, and then they were washed with PBS solution once and the protozoa were obtained.
(§3) After reacting the violacein and anticoccidial agents, salinomycin, diclazuril and gallic acid (hereinafter, material) with 3 kinds of Eimeria protozoa at various concentrations of 1 to 500 ppm, respectively, only alive protozoa (sporozoites) were counted through microscopic observation. […]

Eimeria acervulina = experiment: Protozoan (sporozoite) direct killing effect; format: cell-based; settings: tested 1 to 500 ppm, vs PBS control
Description: as §1, §2, §3

Eimeria tenella [3] = experiment: Protozoan (sporozoite) direct killing effect; format: cell-based; settings: tested 1 to 500 ppm, vs PBS control
Description: as §1, §2, §3

With `CC[C@@H](C(=O)[C@@H](C)[C@@H](O)[C@H](C)[C@@H]1O[C@@H]([C@@H](CC)C(=O)O)CC[C@@H]1C)[C@H]1O[C@]2(C=C[C@@H](O)[C@]3(CC[C@@](C)([C@H]4CC[C@](O)(CC)[C@H](C)O4)O3)O2)[C@H](C)C[C@@H]1C` [Salinomycin, salinomycin, reference compound] the inhibition at 5 ppm (Eimeria tenella [1]; MDBK, 24 h) was 50.1%, the inhibition at 10 ppm (Eimeria tenella [1]; MDBK, 24 h) was 56.4% and the “ADG(g/d) after challenge inoculation” value (Eimeria tenella [2]; feed 60 ppm) was 56 g/day. The Oocyst index (Eimeria tenella [2]; feed 60 ppm) was 10, the Lesion score (Eimeria tenella [2]; feed 60 ppm) was 2.6 and the Oocyst excretion amount/g (Eimeria tenella [2]; feed 60 ppm) was 1.3e+08 g⁻¹. The Lesion index (Eimeria tenella [2]; feed 60 ppm) was 26, the ACI (Eimeria tenella [2]; feed 60 ppm) was 139 and the “Survival rate after challenge inoculation (%)” value (shortened to “Survival rate … (%)”) (Eimeria tenella [2]; feed 60 ppm) was 87%. For the same molecule, the “RWG(%)” value (Eimeria tenella [2]; feed 60 ppm) was 88%, the “Minimum concentration for killing 50% protozoa (sporozoites) (ppm)” value (Eimeria maxima) was 500 ppm and the “Minimum concentration for killing 50% protozoa (sporozoites) (ppm)” value (Eimeria acervulina) was 250 ppm. For the same molecule, the “Minimum concentration for killing 50% protozoa (sporozoites) (ppm)” value (Eimeria tenella [3]) was 500 ppm.

In the case of `O=C1N=c2ccccc2=C1c1cc(-c2c[nH]c3ccc(O)cc23)[nH]c1O` [Violacein, 3-(2-(5-Hydroxyindol-3-yl)-5-oxo-2-pyrrolin-4-ylidene)-2-indolinone], the inhibition at 0.5 ppm (Eimeria tenella [1]; MDBK cells, 0.5 ppm, 41° C. 24 hours) is reported as 59.5%, the inhibition at 1 ppm (Eimeria tenella [1]; MDBK cells, 1 ppm, 41° C. 24 hours) is reported as 78.6% and the “ADG(g/d) after challenge inoculation” value (Eimeria tenella [2]; feed 10 ppm) is reported as 60 g/day. The Oocyst index (Eimeria tenella [2]; feed 10 ppm) was 10, the Lesion score (Eimeria tenella [2]; feed 10 ppm) was 2.1 and the Oocyst excretion amount/g (Eimeria tenella [2]; feed 10 ppm) was 1.3e+08 g⁻¹. For the same molecule, the Lesion index (Eimeria tenella [2]; feed 10 ppm) was 21, the ACI (Eimeria tenella [2]; feed 10 ppm) was 162 and the “Survival rate … (%)” value (Eimeria tenella [2]; feed 10 ppm) was 100%. The “RWG(%)” value (Eimeria tenella [2]; feed 10 ppm) was 94%, the “ADG(g/d) after challenge inoculation” value (Eimeria tenella [2]; feed 40 ppm) was 58 g/day and the Oocyst index (Eimeria tenella [2]; feed 40 ppm) was 10. For the same molecule, the Lesion score (Eimeria tenella [2]; feed 40 ppm) was 2.7, the Oocyst excretion amount/g (Eimeria tenella [2]; feed 40 ppm) was 9e+07 g⁻¹ and the Lesion index (Eimeria tenella [2]; feed 40 ppm) was 27. The ACI (Eimeria tenella [2]; feed 40 ppm) was 145, the “Survival rate … (%)” value (Eimeria tenella [2]; feed 40 ppm) was 90% and the “RWG(%)” value (Eimeria tenella [2]; feed 40 ppm) was 91%. For the same molecule, the “Minimum concentration for killing 50% protozoa (sporozoites) (ppm)” value (Eimeria maxima) was 5 ppm, the “Minimum concentration for killing 50% protozoa (sporozoites) (ppm)” value (Eimeria acervulina) was 3.9 ppm and the “Minimum concentration for killing 50% protozoa (sporozoites) (ppm)” value (Eimeria tenella [3]) was 0.63 ppm.
